Where a name gives a salt, the structure may show the parent alone. Read-outs that look alike come from different tables or passages of the source.
Experiments:
primary rat microglia [1] = experiment: Cell toxicity (dead cells, size <150 μm2) in LPS assay
[2] = system: fibrin- and LPS-induced microglia activation; experiment: cells; type: cell-based, rat
[3] = system: LPS-induced microglia activation; experiment: Image-based assay of LPS-induced microglia activation (HTS and dose response); type: cell-based, rat; conditions: for inhibition at 10 µM: Rattus norvegicus, Microglia, read-out: LPS % inhibition
[4] = system: fibrin-induced microglia activation; experiment: Image-based assay of fibrin-induced microglia activation (HTS and dose response); type: cell-based, rat; conditions: for inhibition at 10 µM: Rattus norvegicus, Microglia, read-out: Fibrin % inhibition
primary rat microglia [5] = experiment: Cell toxicity (dead cells, size <150 μm2) in coated fibrin (cFib) assay;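 note: share of dead cells sized under 150 µm2 at 10 µM in fibrin-stimulated microglia HTS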
[6] = primary microglia HTS, LPS stimulation, toxicity = cell size <150 μm2
[7] = quadrant by fibrin and LPS inhibition in HTS of 1907 compounds
[8] = 48 h, primary microglia HTS, LPS stimulation, activation = cell size >800 μm2
[9] = primary microglia HTS, fibrin stimulation, activation = cell size >800 μm2
[10] = primary microglia HTS, fibrin stimulation, toxicity = cell size <150 μm2
[11] = primary microglia HTS, LPS stimulation, decreased size (<150 μm^2) as marker of toxicity
[12] = 48 h, primary microglia HTS, LPS stimulation, increased cell size (>800 μm^2) as marker of activation
[13] = primary microglia HTS, fibrin stimulation, increased cell size (>800 μm^2) as marker of activation
[14] = primary microglia HTS, fibrin stimulation, decreased size (<150 μm^2) as marker of toxicity
[15] = primary HTS, 10 μM, LPS assay, dead cells size <150 μm2
[16] = primary HTS, 10 μM, LPS-stimulated primary microglia
[17] = primary HTS, 10 μM, fibrin-stimulated primary microglia
[18] = primary HTS, 10 μM, fibrin assay, dead cells size <150 μm2
[19] = primary microglia HTS, 10 μM, LPS assay, cell size <150 μm^2 as marker of toxicity
[20] = HTS of 1907 compounds, quadrant by fibrin and LPS inhibition
[21] = primary microglia HTS, 10 μM, LPS-stimulated, cell size >800 μm^2 as marker of activation
[22] = primary microglia HTS, 10 μM, fibrin-stimulated, cell size >800 μm^2 as marker of activation
[23] = primary microglia HTS, 10 μM, fibrin assay, cell size <150 μm^2 as marker of toxicity

Molecule: O=C(O)c1cc(O)c(O)c(O)c1 [Gallic Acid]
- LPS % cell toxicity (primary rat microglia [1]; [6]): 0%
- Quadrant (FIG. 5b) [2, 7]: Q4
- inhibition at 10 µM [3, 8]: 10%
- inhibition at 10 µM [4, 9]: -32%
- Fibrin % cell toxicity (primary rat microglia [5]; [10]): 0%

Molecule: Nc1c2ccccc2nc2ccccc12 [Aminacrine]
- LPS % cell toxicity (primary rat microglia [1]; [11]): 67%
- Quadrant (FIG. 5b) [2, 7]: Q2
- inhibition at 10 µM [3, 12]: 118%
- inhibition at 10 µM [4, 13]: 117%
- Fibrin % cell toxicity (primary rat microglia [5]; [14]): 72%

Molecule: CCCNC(C)(C)COC(=O)c1ccccc1 [Meprylcaine Hydrochloride]
- LPS % cell toxicity (primary rat microglia [1]; [11]): 0%
- Quadrant (FIG. 5b) [2, 7]: Q4
- inhibition at 10 µM [3, 12]: 7%
- inhibition at 10 µM [4, 13]: -10%
- Fibrin % cell toxicity (primary rat microglia [5]; [14]): 0%

Molecule: Cl.NC1CCN(c2c(F)cc3c(=O)c(C(=O)O)cn(C4CC4)c3c2Cl)C1 (stereo not shown) [Clinafoxacin Hydrochloride]
- LPS % cell toxicity (primary rat microglia [1]; [15]): 0%
- Quadrant (FIG. 5b) ([2]; primary HTS, 10 μM): Q4
- LPS % inhibition [3, 16]: 9%
- Fibrin % inhibition [4, 17]: −22%
- Fibrin % cell toxicity (primary rat microglia [5]; [18]): 0%

Molecule: CC(C)CCCC(C)NC(C)C (stereo not shown) [Iproheptine]
- LPS % cell toxicity (primary rat microglia [1]; [6]): 0%
- Quadrant (FIG. 5b) [2, 7]: Q4
- inhibition at 10 µM [3, 8]: 11%
- inhibition at 10 µM [4, 9]: -34%
- Fibrin % cell toxicity (primary rat microglia [5]; [10]): 1%

Molecule: CC1(C)OC(=O)C(OCC2CC2)=C1c1ccc(S(C)(=O)=O)cc1 [Firocoxib]
- LPS % cell toxicity (primary rat microglia [1]; [6]): 1%
- Quadrant (FIG. 5b) [2, 7]: Q4
- inhibition at 10 µM [3, 8]: 11%
- inhibition at 10 µM [4, 9]: -10%
- Fibrin % cell toxicity (primary rat microglia [5]; [10]): 1%

Molecule: COc1cc2c(cc1OC)[C@@]13CCN4CC5=CCO[C@H]6CC(=O)N2[C@H]1[C@H]6[C@H]5C[C@H]43 [Brucine]
- LPS % cell toxicity (primary rat microglia [1]; [15]): 0%
- Quadrant (FIG. 5b) ([2]; primary HTS, 10 μM): Q4
- inhibition at 10 µM [3, 16]: 13%
- inhibition at 10 µM [4, 17]: 6%
- Fibrin % cell toxicity (primary rat microglia [5]; [18]): 1%

Molecule: Cc1cc(C(C)(C)C)cc(C)c1CC1=NCCN1 [Xylometazoline]
- LPS % cell toxicity (primary rat microglia [1]; [19]): 1%
- Quadrant (FIG. 5b) [2, 20]: Q4
- inhibition at 10 µM [3, 21]: 19%
- inhibition at 10 µM [4, 22]: -5%
- Fibrin % cell toxicity (primary rat microglia [5]; [23]): 0%

Molecule: Oc1c(I)cc(Cl)c2cccnc12 [Clioquinol]
- LPS % cell toxicity (primary rat microglia [1]; [15]): 1%
- Quadrant (FIG. 5b) ([2]; primary HTS, 10 μM): Q4
- inhibition at 10 µM [3, 16]: 22%
- inhibition at 10 µM [4, 17]: -11%
- Fibrin % cell toxicity (primary rat microglia [5]; [18]): 1%

Molecule: C[C@H]1O[C@@H](O[C@H]2CC[C@@]3(C)[C@H](CC[C@@H]4[C@@H]3C[C@@H](O)[C@]3(C)[C@@H](C5=CC(=O)OC5)CC[C@]43O)C2)C[C@H](O)[C@@H]1O[C@H]1C[C@H](O)[C@H](O[C@H]2C[C@H](O)[C@H](O[C@@H]3O[C@H](CO)[C@@H](O)[C@H](O)[C@H]3O)[C@@H](C)O2)[C@@H](C)O1 [Deslanoside]
- LPS % cell toxicity (primary rat microglia [1]; [11]): 1%
- Quadrant (FIG. 5b) [2, 7]: Q1
- inhibition at 10 µM [3, 12]: 67%
- inhibition at 10 µM [4, 13]: -3%
- Fibrin % cell toxicity (primary rat microglia [5]; [14]): 1%

Molecule: CN(C)CC/C=C1/c2ccccc2COc2ccc(CC(=O)O)cc21 [Olopatadine]
- LPS % cell toxicity (primary rat microglia [1]; [11]): 0%
- Quadrant (FIG. 5b) [2, 7]: Q4
- inhibition at 10 µM [3, 12]: -9%
- inhibition at 10 µM [4, 13]: -42%
- Fibrin % cell toxicity (primary rat microglia [5]; [14]): 1%

Molecule: CCN(CC)CCNC(=O)c1cc(Cl)c(N)cc1OC [Metoclopramide]
- LPS % cell toxicity (primary rat microglia [1]; [11]): 0%
- Quadrant (FIG. 5b) [2, 7]: Q4
- inhibition at 10 µM [3, 12]: 12%
- inhibition at 10 µM [4, 13]: -2%
- Fibrin % cell toxicity (primary rat microglia [5]; [14]): 1%

Molecule: Colistin Sulfate
- LPS % cell toxicity (primary rat microglia [1]; [11]): 1%
- Quadrant (FIG. 5b) [2, 7]: Q1
- LPS % inhibition ([3]; primary microglia HTS, LPS stimulation, increased cell size (>800 μm^2) as marker of activation): 58%
- Fibrin % inhibition [4, 13]: 19%
- Fibrin % cell toxicity (primary rat microglia [5]; [14]): 1%

Molecule: C[C@H](Cn1cnc2c(N)ncnc21)OCP(=O)(O)O [Tenofovir]
- LPS % cell toxicity (primary rat microglia [1]; [19]): 0%
- Quadrant (FIG. 5b) [2, 20]: Q4
- LPS % inhibition [3, 21]: 17%
- Fibrin % inhibition [4, 22]: −10%
- Fibrin % cell toxicity (primary rat microglia [5]; [23]): 0%

Molecule: O=C(NCCN1CCOCC1)c1ccc(Cl)cc1 [Moclobemide]
- LPS % cell toxicity (primary rat microglia [1]; [11]): 0%
- Quadrant (FIG. 5b) [2, 7]: Q4
- inhibition at 10 µM [3, 12]: 14%
- inhibition at 10 µM [4, 13]: -6%
- Fibrin % cell toxicity (primary rat microglia [5]; [14]): 1%

Molecule: Cc1ccsc1/C=C/C1=NCCCN1C [Morantel Citrate]
- LPS % cell toxicity (primary rat microglia [1]; [11]): 0%
- Quadrant (FIG. 5b) [2, 7]: Q4
- inhibition at 10 µM [3, 12]: 11%
- inhibition at 10 µM [4, 13]: -11%
- Fibrin % cell toxicity (primary rat microglia [5]; [14]): 1%

Molecule: C=C1CC[C@H](O)C/C1=C/C=C1\CCC[C@]2(C)[C@@H]([C@H](C)CCCC(C)(C)O)CC[C@@H]12 [Calcidiol]
- LPS % cell toxicity (primary rat microglia [1]; [15]): 0%
- Quadrant (FIG. 5b) ([2]; primary HTS, 10 μM): Q4
- inhibition at 10 µM [3, 16]: 8%
- inhibition at 10 µM [4, 17]: 14%
- Fibrin % cell toxicity (primary rat microglia [5]; [18]): 1%

Molecule: COc1ccc2c(c1OC)C(=O)O[C@@H]2[C@H]1c2c(cc3c(c2OC)OCO3)CCN1C [Noscapine Hydrochloride]
- LPS % cell toxicity (primary rat microglia [1]; [11]): 0%
- Quadrant (FIG. 5b) [2, 7]: Q4
- inhibition at 10 µM [3, 12]: 23%
- inhibition at 10 µM [4, 13]: -15%
- Fibrin % cell toxicity (primary rat microglia [5]; [14]): 1%

Molecule: CC(=O)N(CC(O)CO)c1c(I)c(C(=O)NCCO)c(I)c(C(=O)NCC(O)CO)c1I (stereo not shown) [Ioxilan]
- LPS % cell toxicity (primary rat microglia [1]; [6]): 0%
- Quadrant (FIG. 5b) [2, 7]: Q4
- inhibition at 10 µM [3, 8]: 8%
- inhibition at 10 µM [4, 9]: 7%
- Fibrin % cell toxicity (primary rat microglia [5]; [10]): 0%

Molecule: CN(C)CCCOc1nn(Cc2ccccc2)c2ccccc12 [Benzydamine]
- LPS % cell toxicity (primary rat microglia [1]; [15]): 1%
- Quadrant (FIG. 5b) ([2]; primary HTS, 10 μM): Q4
- inhibition at 10 µM [3, 16]: 30%
- inhibition at 10 µM [4, 17]: -16%
- Fibrin % cell toxicity (primary rat microglia [5]; [18]): 1%

Molecule: CC(=O)Oc1ccccc1C(=O)Nc1ncc([N+](=O)[O-])s1 [Nitazoxanide]
- LPS % cell toxicity (primary rat microglia [1]; [11]): 0%
- Quadrant (FIG. 5b) [2, 7]: Q4
- inhibition at 10 µM [3, 12]: 22%
- inhibition at 10 µM [4, 13]: -16%
- Fibrin % cell toxicity (primary rat microglia [5]; [14]): 1%

Molecule: CCCCNc1cc(C(=O)O)cc(S(N)(=O)=O)c1Oc1ccccc1 [Bumetanide]
- LPS % cell toxicity (primary rat microglia [1]; [15]): 1%
- Quadrant (FIG. 5b) ([2]; primary HTS, 10 μM): Q4
- inhibition at 10 µM [3, 16]: 18%
- inhibition at 10 µM [4, 17]: -3%
- Fibrin % cell toxicity (primary rat microglia [5]; [18]): 1%

Molecule: CC(=O)Nc1ccc(S(=O)(=O)Nc2ccc([N+](=O)[O-])cc2)cc1 [Sulfanitran]
- LPS % cell toxicity (primary rat microglia [1]; [19]): 0%
- Quadrant (FIG. 5b) [2, 20]: Q4
- inhibition at 10 µM [3, 21]: 18%
- inhibition at 10 µM [4, 22]: 10%
- Fibrin % cell toxicity (primary rat microglia [5]; [23]): 1%
